pIC50: −log10 of the molar value. Where a SMILES comes first, the peptide text is derived from it. Where no end group is shown, it is not given here. [ ]: non-standard residue; d: D form. The star is where a group is joined. AMC = Cc1cc(=O)oc2cc(N*)ccc12; Nle = CCCC[CH](N)C(=O)O; Cbz = O=C(OCc1ccccc1)*; NHOH = ON*
Test system: 293 cell extract
Experiment: Cleavage of Z-Pro-Lys-Lys-Glu-AMC (Peptide 1) by 293 cell extract and its inhibition by protease inhibitors
Type: biochemical, human
Parameters: % Inhibition: concentration or dose not given beside the values
Details: different pHs, pH range 4.5-7.5
Procedure: Following a 20 minutes incubation at 37° C., fluorescence released due to proteolytic activity was determined using a BMG POLARstar™ Galaxy fluorometer: excitation at 390 nm and emission at 460 nm.

Compound	cleavage by 293 cell extract
Z-Glu-His-Tyr-Gln-AMC (Cbz-EHYQ-{AMC}; SMILES Cc1cc(=O)oc2cc(NC(=O)[C@H](CCC(N)=O)NC(=O)[C@H](Cc3ccc(O)cc3)NC(=O)[C@H](Cc3c[nH]cn3)NC(=O)[C@H](CCC(=O)O)NC(=O)OCc3ccccc3)ccc12) [Peptide 2]	not cleaved

Same assay, conditions: inhibition of Z-Pro-Lys-Lys-Glu-AMC cleavage by 293 cell extract

Compound	% Inhibition
CSCC[C@@H](C=O)NC(=O)[C@H](CC(C)C)NC(=O)[C@H](CC(C)C)NC(C)=O [Calpain inhibitor II, N-Acetyl-Leu-Leu-Met-CHO] (Ac-Leu-Leu-Met-aldehyde)	98%
O=C[C@H](Cc1ccc(O)cc1)NC(=O)[C@H](Cc1ccccc1)NC(=O)OCc1ccccc1 [Cathepsin L inhibitor II] (Cbz-Phe-Tyr-aldehyde)	97%
CC(C)C[C@H](NC(=O)[C@H]1O[C@@H]1C(=O)O)C(=O)NCCCCN=C(N)N [Compound E-64]	93%
CC(=O)N[C@@H](CC(C)C)C(=O)N[C@@H](CC(C)C)C(=O)N[C@H](C=O)CCCNC(=N)N [Leupeptin]	97%
O=C(O)[C@@H](Cc1ccccc1)NS(=O)(=O)c1ccc(-c2ccccc2)cc1 [MMP 2,9 inhibitor]	0%
CC(C)CC(NC(=O)C1CCCN1C(=O)OCc1ccccc1)C(=O)NCC(=O)NO (stereo not drawn) [Z-Pro-Leu-Gly hydroxamate] (Cbz-Pro-Leu-Gly-{NHOH}; configuration not given here)	0%
N=C(N)c1ccccc1 [benzamidine]	13%

Target: T1, pro-heparanase (H60) (Homo sapiens, UniProt Q9Y251, K307R)
T1 sequence (Q9Y251 36-543 K307R): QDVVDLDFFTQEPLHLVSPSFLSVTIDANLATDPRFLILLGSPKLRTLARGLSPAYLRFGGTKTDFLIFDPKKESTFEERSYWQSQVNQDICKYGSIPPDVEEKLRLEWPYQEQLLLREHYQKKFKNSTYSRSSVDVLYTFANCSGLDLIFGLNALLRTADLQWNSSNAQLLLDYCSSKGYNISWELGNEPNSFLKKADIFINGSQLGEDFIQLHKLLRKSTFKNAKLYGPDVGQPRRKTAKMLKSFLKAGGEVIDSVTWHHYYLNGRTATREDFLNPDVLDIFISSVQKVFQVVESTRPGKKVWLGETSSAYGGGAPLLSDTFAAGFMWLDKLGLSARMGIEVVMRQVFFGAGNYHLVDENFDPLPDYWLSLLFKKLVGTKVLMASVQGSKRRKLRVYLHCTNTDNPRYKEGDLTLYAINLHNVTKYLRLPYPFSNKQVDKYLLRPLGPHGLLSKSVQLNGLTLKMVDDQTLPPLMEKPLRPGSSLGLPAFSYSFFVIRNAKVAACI
Experiment: Pro-heparanase activation in a cell-based assay (293 cells, DMB assay)
Details: inhibition of pro-heparanase activation; Table 7, 5-(5-Phenyl-furan-2-ylmethylene)rhodanine analogs

pIC50	Compound
6.28	O=C(O)CCCCCN1C(=O)C(=Cc2ccc(-c3ccc(Cl)cc3)o2)SC1=S [Compound 2]
4.84	O=C(O)CCCN1C(=O)C(=Cc2ccc(-c3ccccc3[N+](=O)[O-])o2)SC1=S [Compound 3]
5.64	O=C(O)CCN1C(=O)C(=Cc2ccc(-c3ccccc3)o2)SC1=S [Compound 7]
5.22	O=C(O)CCN1C(=O)C(=Cc2ccc(-c3ccccc3Cl)o2)SC1=S [Compound 8]
5.52	O=C(O)CCN1C(=O)C(=Cc2ccc(-c3ccc(Cl)cc3Cl)o2)SC1=S [Compound 9]
4.52	O=C(O)CCN1C(=O)C(=Cc2ccc(-c3ccccc3[N+](=O)[O-])o2)SC1=S [Compound 10]
5.55	O=C(O)CCN1C(=O)C(=Cc2ccc(-c3ccc([N+](=O)[O-])cc3)o2)SC1=S [Compound 11]
4.49	O=C(O)CN1C(=O)C(=Cc2ccc(-c3ccccc3Cl)o2)SC1=S [Compound 14]
5.70	O=C(O)CN1C(=O)C(=Cc2ccc(-c3cccc(Cl)c3)o2)SC1=S [Compound 15]
5.42	O=C(O)CN1C(=O)C(=Cc2ccc(-c3ccc(Cl)cc3)o2)SC1=S [Compound 16]
4.70	O=C(O)CN1C(=O)C(=Cc2ccc(-c3cc(Cl)ccc3Cl)o2)SC1=S [Compound 17]
4.74	O=C(O)CN1C(=O)C(=Cc2ccc(-c3ccc(Cl)cc3Cl)o2)SC1=S [Compound 18]
4.54	O=C(O)CN1C(=O)C(=Cc2ccc(-c3ccc([N+](=O)[O-])cc3Cl)o2)SC1=S [Compound 20]
4.57	O=C(O)CN1C(=O)C(=Cc2ccc(-c3ccc(I)cc3)o2)SC1=S [Compound 22]
4.43	O=C(O)CN1C(=O)C(=Cc2ccc(-c3ccccc3[N+](=O)[O-])o2)SC1=S [Compound 24]
4.68	Cc1cc([N+](=O)[O-])ccc1-c1ccc(C=C2SC(=S)N(CC(=O)O)C2=O)o1 [Compound 25]
5.15	O=C(O)CN1C(=O)C(=Cc2ccc(-c3cccc(C(F)(F)F)c3)o2)SC1=S [Compound 26]
4.34	O=C(O)CN1C(=O)C(=Cc2ccc(-c3cccc(C(=O)O)c3)o2)SC1=S [Compound 27]
4.39	O=C1C(=Cc2ccc(-c3cccc([N+](=O)[O-])c3)o2)SC(=S)N1CCS(=O)(=O)O [Compound 35]
4.89	O=C1NC(=S)SC1=Cc1ccc(-c2ccc(Br)cc2)o1 [Compound 36]
4.74	Cc1ccc(-c2ccc(C=C3SC(S)=NC3=O)o2)cc1Cl [Compound 37]
3.60	O=C1C(=Cc2ccc(-c3ccc([N+](=O)[O-])cc3Cl)o2)SC(=S)N1c1ccccc1 [Compound 46]
5.30	O=C(O)c1cccc(-c2ccc(C=C3SC(=S)N(c4ccccc4)C3=O)o2)c1 [Compound 47]
6.02	O=C(O)c1ccc(-c2ccc(C=C3SC(=S)N(c4ccccc4)C3=O)o2)cc1 [Compound 48]
4.89	O=C(O)c1ccc(-c2ccc(C=C3SC(=S)N(c4cccc([N+](=O)[O-])c4)C3=O)o2)cc1 [Compound 56]
3.89	O=C1C(=Cc2ccc(-c3cccc(Cl)c3Cl)o2)SC(=S)N1c1ccccc1 [Compound 1013-0169]

Same assay, conditions: inhibition of pro-heparanase activation; Table 8, 5-(Heteroaryl-2-ylmethylene)rhodanine analogs

pIC50	Compound
4.28	Cc1c(N2C(=O)C(=Cc3ccco3)SC2=S)c(=O)n(-c2ccccc2)n1C [Compound 76]

Same assay, conditions: inhibition of pro-heparanase activation; Table 11, heparin-binding compounds

pIC50	Compound
5.58	C=CCn1c(=O)/c(=C\C=C2/Nc3c(sc(C)c3C)N2CC)s/c1=C\c1sc(-c2ccccc2)c(-c2ccccc2)[n+]1CC [Compound 113]
5.15	C=CCn1c(=O)/c(=C\C=C2\C=CN(CC)c3ccccc32)s/c1=C\c1sc(-c2ccccc2)c(-c2ccccc2)[n+]1CC [Compound 114]
4.92	CCN1C=C/C(=C/C=c2/s/c(=C\c3sc(-c4ccccc4)c(-c4ccccc4)[n+]3CC)n(CC)c2=O)c2ccccc21 [Compound 115]
5.52	CN(C)c1ccc(/C=C/C2=[N+](C)c3ccccc3C2(C)C)cc1 [Compound 116]
5.05	CN(C)c1ccc(/C=C/c2sc3ccc4ccccc4c3[n+]2C)cc1 [Compound 117]
5.22	CC[n+]1c(/C=C/Nc2ccccc2)sc2c3ccccc3sc21 [Compound 118]
5.76	CCN1/C(=C/C=C/c2sc3ccc(OC)cc3[n+]2CC)Sc2ccc3ccccc3c21 [Compound 119]
5.46	CCC(/C=C1\Sc2ccc3ccccc3c2N1CC)=C\c1sc2ccc(-c3ccccc3)cc2[n+]1CC [Compound 120]
5.28	CC[n+]1ccc(/C=C/C=C2\Sc3ccc4ccccc4c3N2C)c2ccccc21 [Compound 121]
4.80	CN1\C(=C/C=C/C=C/C=C/C2=[N+](C)c3ccccc3C2(C)C)C(C)(C)c2ccccc21 [Compound 122]

Same assay, conditions: inhibition of pro-heparanase activation; Table 12, known inhibitors of cathepsin B activity

pIC50	Compound
5.13	CCCCC(C=O)NC(=O)C(CC(C)C)NC(=O)C(CC(C)C)NC(C)=O (stereo not drawn) [Compound 123, reference compound] (Ac-Leu-Leu-[Nle]-aldehyde; configuration not given here)
5.00	CSCCC(C=O)NC(=O)C(CC(C)C)NC(=O)C(CC(C)C)NC(C)=O (stereo not drawn) [Compound 124, reference compound] (Ac-Leu-Leu-Met-aldehyde; configuration not given here)
4.64	CCCNC(=O)C1OC1C(=O)NC(C(=O)N1CCCC1C(=O)OC)C(C)CC (stereo not shown) [Compound 125, reference compound]
4.59	CC(=O)NC(CC(C)C)C(=O)NC(CC(C)C)C(=O)NC(C=O)CCCNC(=N)N (stereo not shown) [Compound 126, reference compound]
4.49	CC(C)CC(NC(=O)C1OC1C(=O)O)C(=O)NCCCCNC(=N)N (stereo not shown) [Compound 127, reference compound]

Target: T2, Heparanase (Homo sapiens, UniProt Q9Y251, K307R)
T2 sequence (Q9Y251 158-543 K307R limits assumed): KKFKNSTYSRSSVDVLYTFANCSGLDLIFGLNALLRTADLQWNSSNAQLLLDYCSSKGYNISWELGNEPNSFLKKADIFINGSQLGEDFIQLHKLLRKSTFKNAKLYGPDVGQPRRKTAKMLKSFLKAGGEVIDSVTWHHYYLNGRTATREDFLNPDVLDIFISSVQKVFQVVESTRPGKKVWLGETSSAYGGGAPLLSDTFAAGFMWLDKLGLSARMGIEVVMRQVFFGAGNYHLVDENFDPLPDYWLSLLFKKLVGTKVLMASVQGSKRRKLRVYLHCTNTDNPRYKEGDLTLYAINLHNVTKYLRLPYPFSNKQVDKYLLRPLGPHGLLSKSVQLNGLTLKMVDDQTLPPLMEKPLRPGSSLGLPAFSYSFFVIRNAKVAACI
T2 sequence (Q9Y251 36-109 limits assumed): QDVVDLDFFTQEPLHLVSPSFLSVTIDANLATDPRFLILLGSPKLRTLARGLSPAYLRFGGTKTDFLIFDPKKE
Experiment: Dimerization assay (H53 hetero-dimer formation, di-methyl-methylene-blue)
Type: biochemical
Details: inhibition of H53 hetero-dimer formation by H8-derived peptides; read-out: IC50 H53
Source text: Dimerization assay—Activation assay using di-methyl-methylene-blue was effected as described in U.S. Pat. No. 6,190,875.

pIC50	Compound
5.15	CPAYLRFGGTKTDFLIFDPLLE [Pep-7]

Test system: not listed separately
Experiment: Heparin binding of compounds (heparin sepharose CL-6B beads)
Details: compound at 5 uM
Procedure: Heparin binding—5 μM of the selected compound was prepared in a solution of PBS pH 7.2 with 0.05% Tween and 5% DMSO. […] Excess water was discarded by filtration using a Multiscreen vacuum manifold (Millipore, Cat No. MAVM 096 00). 200 μl of each compound tested was transferred to three wells of the filter plate—one empty well, one with sepharose CL-6B and one with heparin sepharose CL-6B. Plates were rotated for 2 hrs at 37° C. followed by filtration to a new 96 well clear plate, using a Multiscreen vacuum manifold. The absorbance spectrum of the filtrate in each well was determined using a VERSAmax plate reader (Molecular devices). Percent of heparin binding was calculated from the binding to heparin sepharose CL-6B as compared to the binding of the compound to the control sepharose CL-6B beads.

Binding to heparin (5 uM)	Compound
73%	C=CCn1c(=O)/c(=C\C=C2/Nc3c(sc(C)c3C)N2CC)s/c1=C\c1sc(-c2ccccc2)c(-c2ccccc2)[n+]1CC [Compound 113]
48%	C=CCn1c(=O)/c(=C\C=C2\C=CN(CC)c3ccccc32)s/c1=C\c1sc(-c2ccccc2)c(-c2ccccc2)[n+]1CC [Compound 114]
66%	CCN1C=C/C(=C/C=c2/s/c(=C\c3sc(-c4ccccc4)c(-c4ccccc4)[n+]3CC)n(CC)c2=O)c2ccccc21 [Compound 115]
71%	CN(C)c1ccc(/C=C/C2=[N+](C)c3ccccc3C2(C)C)cc1 [Compound 116]
66%	CN(C)c1ccc(/C=C/c2sc3ccc4ccccc4c3[n+]2C)cc1 [Compound 117]
61%	CC[n+]1c(/C=C/Nc2ccccc2)sc2c3ccccc3sc21 [Compound 118]
51%	CCN1/C(=C/C=C/c2sc3ccc(OC)cc3[n+]2CC)Sc2ccc3ccccc3c21 [Compound 119]
61%	CCC(/C=C1\Sc2ccc3ccccc3c2N1CC)=C\c1sc2ccc(-c3ccccc3)cc2[n+]1CC [Compound 120]
47%	CC[n+]1ccc(/C=C/C=C2\Sc3ccc4ccccc4c3N2C)c2ccccc21 [Compound 121]
65%	CN1\C(=C/C=C/C=C/C=C/C2=[N+](C)c3ccccc3C2(C)C)C(C)(C)c2ccccc21 [Compound 122]

From US20050042213A1, “Methods and pharmaceutical compositions for modulating heparanase activation and uses thereof” (InSight Biopharmaceuticals Ltd., priority 2003, published 2005)
